{
  "source": "patent EP0449955B1",
  "about": "“SYNTHETIC HIV-LIKE PEPTIDES, THEIR COMPOSITIONS AND USES” (CLARITY TECHNOLOGIES INCORPORATED, priority 1988, dated 1996)",
  "system": "antibodies to HIV-2",
  "assay": "EIA of HIV-2 peptide-BSA conjugates with macaque sera",
  "assay_type": "binding",
  "conditions": "macaque sera containing or not containing antibodies to HIV-2, Figure 7",
  "description": "The synthetic peptides of Figures 1-8 were reduced with 10mM DTT, or with immobilized DTT (Reductacryl, Calbiochem, San Diego, California, U.S.A., 10 mg Reductacryl per mg peptide) overnight at 4°C, pH8 in 10mM borate or other buffers depending upon peptide solubility, with gentle mixing. KLH was dissolved at a concentration of 10-30 mg/ml in 10 mM phosphate buffer pH 7.2., and BSA was dissolved at a concentration of 20-80 mg/ml for treatment with heterobifunctional linkers MBS (m-Maleimidobenzoyl-N-hydroxysuccinimide ester), SPDP [N-Succinimidyl 3-(2 pyridyldithio)propionate], or Sulfo-SMCC [Sulfo-Succinimidyl 4(N-maleimidomethyl)-cyclohexane-1-carboxylate]. The heterobifunctional linkers were added to the protein solutions in a molar excess of linker to BSA of 100, or of linker to KLH of 1000. MBS was dissolved in DMF at 10mg/ml, SPDP was dissolved in absolute ethanol at 10mg/ml and each of these was added dropwise with mixing into the protein solution, whereas the Sulfo-SMCC dry powder was dissolved into the protein solution. Each protein-linker mixture was reacted at room temperature for 15 minutes to 1 hour and then free linker was separated from BSA-linker or KLH-linker by gel chromatography with Sephadex G25 using 50mM phosphate, pH 6 for KLH-MBS, 10mM acetate, 100 mM Nacl, pH 4.6 for BSA-SPDP, or 100 mM phosphate, 1 mM EDTA, pH 6.5 for BSA-SMCC. The reduced peptides were separated from DTT by Sephadex G10 column chromatography when soluble DTT was used, or by centrifugation followed by filtration through a 0.22 micron filter when Reductacryl was used. Reduced peptides were combined with linker treated KLH or BSA in molar ratios of 100-1000 peptide/KLH-MBS, 1-50 peptide/BSA-SMCC, and 0.1-10 peptide/BSA-SPDP. Each reduced peptide was added to the linker-treated protein with mixing, overlayed with N₂, and then mixed gently at room temperature for one hour, and then overnight at 4°C. The SMCC-BSA conjugates were further treated with a 1 mM final concentration of mercaptoethylamine for 4 hours, and then dialyzed overnight against 100 volumes of buffer (20mM phosphate, 1 mM EDTA, 0.05% sodium azide, pH 6.5) at 4°C. All other conjugates were adjusted to a final concentration of sodium azide of 0.05%. Optimal molar ratios of peptide/protein for the conjugates were determined by solubility and antigenicity (as evaluated by EIA).\nThe free peptides or peptide-protein conjugates of Figures 1-13 were initially screened for immunoreactivity by coating each well of polystyrene microtiter EIA plates (Costar, Cambridge, Massachusetts, U.S.A.) with 0.2 ml amounts of concentrations of 5-50 micrograms/ml peptide in Tris buffer, 10 mM, pH 8.0, at 4°C overnight. […]",
  "data": [
    {"sequence": "ARLNSWGCAFRQVCHGC [2S25]", "values": [
      {"measurement": "discrimination of positive from negative samples", "result": "most favorable performances"}
    ]}
  ]
}
